# Results reported in US20250171459A1, “2-METHYL-4',5'-DIHYDROSPIRO[PIPERIDINE-4,7'-THIENO[2,3-C]PYRAN] DERIVATIVES AS INHIBITORS OF APOL1 AND METHODS OF USING SAME” (Vertex Pharmaceuticals Incorporated, priority 2022, published 2025).
# Target: T1, APOL1 (Homo sapiens, UniProt O14791)
# T1 sequence (O14791 1-398 S342G/I384M): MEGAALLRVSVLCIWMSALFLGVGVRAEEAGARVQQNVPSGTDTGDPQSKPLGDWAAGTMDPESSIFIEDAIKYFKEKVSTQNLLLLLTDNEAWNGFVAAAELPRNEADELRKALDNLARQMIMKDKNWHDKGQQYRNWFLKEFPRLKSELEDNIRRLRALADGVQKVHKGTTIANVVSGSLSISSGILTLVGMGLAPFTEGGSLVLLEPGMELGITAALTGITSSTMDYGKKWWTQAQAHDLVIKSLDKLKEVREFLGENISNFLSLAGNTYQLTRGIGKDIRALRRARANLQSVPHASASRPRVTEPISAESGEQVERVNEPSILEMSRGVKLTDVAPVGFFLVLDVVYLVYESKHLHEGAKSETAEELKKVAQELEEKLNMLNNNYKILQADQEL
# Assay: MultiTox-Fluor Multiplex Cytotoxicity Assay in tet-inducible APOL1 T-REx-HEK293 cells (cell rescue, ratio of dead to live cells)
# Format: cell-based
# Settings: tet-inducible transgenic APOL1 T-REx-HEK293 cell lines, 50 ng/mL tet, 24 hours; read-out: IP50 (i.e., IC50 for cell proliferation)
# From the text: The MultiTox-Fluor Multiplex Cytotoxicity Assay is a single-reagent-addition, homogeneous, fluorescence assay that measures the number of live and dead cells simultaneously in culture wells. The assay measures cell viability and cytotoxicity by detecting two distinct protease activities. […] The substrate enters intact cells, where it is cleaved to generate a fluorescent signal proportional to the number of living cells. […] A ratio of dead to live cells is used to normalize data.
# The MultiTox reagent was added to each well and placed back in the incubator for an additional 30 minutes. The plate was read on the EnVision plate reader. A ratio of dead to live cells was used to normalize, and data was imported, analyzed, and fit using Genedata Screener (Basel, Switzerland) software. Data was normalized using percent of control, no tet (100% viability), and 50 ng/mL tet treated (0% viability), and fit using Smart Fit. The reagents, methods, and complete protocol for the MultiTox assay are described below.
# Cells were washed with DPBS and then trypsinized to dissociate from the flask. Media was used to quench the trypsin, cells were then pelleted at 200 g and resuspended in fresh cell assay media (DMEM, 2% Tet-free FBS, 2 mM L-glutamine, 100 Units/mL penicillin-streptomycin). […] The plates were then incubated at room temperature for one hour.
# Tetracycline is needed to induce APOL1 expression. 1 mg/mL tet stock in water was diluted to 250 ng/mL (5×) in cell assay media.
# Compounds were dispensed at 200 nL in DMSO. The final top concentration was 10 μM with a 10 point 3-fold dilution in duplicate in the MultiTox assay.
# 20 μL was transferred from the 5× tet plate to the ARP and mixed, then 5 μL of 5× tet and the compounds were transferred to the cell plate and mixed using the Bravo. The cell plate was placed in the humidified 37° C. 5% CO2 incubator for 24 hours.
# The MultiTox-Fluor Multiplex Cytotoxicity Assay was performed in accordance with the manufacturer's protocol. After cells were incubated with tet and compound for 24 hours, 25 μL of 1× MultiTox reagent was added to each well using the Multidrop dispenser; the plates were placed on a plate shaker (600 rpm) for 2 minutes, then centrifuged briefly and placed back in the 37° C. incubator for 30 minutes. The cell viability (excitation: 400 nm, emission: 486 nm) and cytotoxicity (excitation: 485 nm, emission: 535 nm) were read using the EnVision plate reader. A ratio of dead (cytotoxicity) to live (viability) cells was reported. Data was exported and analyzed in Genedata. Data was normalized using percent of control, no tet (100% viability), and 50 ng/mL tet treated (0% viability), and fit using Smart Fit settings in Genedata.
row,Structure (SMILES),IC50
1,CCc1cc2c(s1)CCO[C@@]21CCN(Cc2cn(Cc3ccnnc3)nn2)[C@@H](C)C1 [Compound 41],< 100 nM
2,CCc1cc2c(s1)CCO[C@@]21CCN(Cc2cn(CCNC(=O)c3ccncc3)nn2)[C@@H](C)C1 [Compound 42],< 100 nM
3,CCc1cc2c(s1)CCO[C@@]21CCN(Cc2cn(CCc3cnccn3)nn2)[C@@H](C)C1 [Compound 43],100 to 500 nM
4,CCc1cc2c(s1)CCO[C@@]21CCN(Cc2cn(Cc3cnn(C)c3C)nn2)[C@@H](C)C1 [Compound 44],< 100 nM
5,CCc1cc2c(s1)CCO[C@@]21CCN(Cc2cn(Cc3cnoc3)nn2)[C@@H](C)C1 [Compound 45],< 100 nM
6,CCc1cc2c(s1)CCO[C@@]21CCN(Cc2cn(CCn3cccn3)nn2)[C@@H](C)C1 [Compound 46],100 to 500 nM
7,CCc1cc2c(s1)CCO[C@@]21CCN(Cc2cn(CCc3c[nH]cn3)nn2)[C@@H](C)C1 [Compound 48],< 100 nM
8,CCc1cc2c(s1)CCO[C@@]21CCN(Cc2cn(Cc3cnn(C)c3)nn2)[C@@H](C)C1 [Compound 49],< 100 nM
9,CCc1cc2c(s1)CCO[C@@]21CCN(Cc2cn(CCNC(=O)c3cnc(C)cn3)nn2)[C@@H](C)C1 [Compound 50],< 100 nM
10,CCc1cc2c(s1)CCO[C@@]21CCN(Cc2cn(Cc3ncccn3)nn2)[C@@H](C)C1 [Compound 51],100 to 500 nM
11,CCc1cc2c(s1)CCO[C@@]21CCN(Cc2cn(Cc3nnc4n3CCCC4)nn2)[C@@H](C)C1 [Compound 52],< 100 nM
12,CCc1cc2c(s1)CCO[C@@]21CCN(Cc2cn(Cc3nc(C)cc(C)n3)nn2)[C@@H](C)C1 [Compound 53],500 to 1000 nM
13,CCc1cc2c(s1)CCO[C@@]21CCN(Cc2cn(Cc3cn(C)nc3C)nn2)[C@@H](C)C1 [Compound 54],< 100 nM
14,CCc1cc2c(s1)CCO[C@@]21CCN(Cc2cn(Cc3ccncn3)nn2)[C@@H](C)C1 [Compound 55],100 to 500 nM
15,CCc1cc2c(s1)CCO[C@@]21CCN(Cc2cn(Cc3nccn3C)nn2)[C@@H](C)C1 [Compound 56],< 100 nM
16,CCc1cc2c(s1)CCO[C@@]21CCN(Cc2cn(Cc3c[nH]nc3C)nn2)[C@@H](C)C1 [Compound 57],< 100 nM
17,CCc1cc2c(s1)CCO[C@@]21CCN(Cc2cn(CC(C)n3cncn3)nn2)[C@@H](C)C1 (stereo partly shown) [Compound 58],100 to 500 nM
18,CCc1cc2c(s1)CCO[C@@]21CCN(Cc2cn(CC(=O)NC3CC3)nn2)[C@@H](C)C1 [Compound 59],< 100 nM
19,CCc1cc2c(s1)CCO[C@@]21CCN(Cc2cn(Cc3cnn(CCO)c3)nn2)[C@@H](C)C1 [Compound 60],< 100 nM
20,CCc1cc2c(s1)CCO[C@@]21CCN(Cc2cn(C3CCCN(C(C)=O)C3)nn2)[C@@H](C)C1 (stereo partly shown) [Compound 61],100 to 500 nM
21,CCc1cc2c(s1)CCO[C@@]21CCN(Cc2cn([C@H]3CS(=O)(=O)C[C@H]3O)nn2)[C@@H](C)C1 [Compound 62],< 100 nM
22,CCc1cc2c(s1)CCO[C@@]21CCN(Cc2cn(CC(=O)N3CCCC3)nn2)[C@@H](C)C1 [Compound 63],< 100 nM
23,CCc1cc2c(s1)CCO[C@@]21CCN(Cc2cn(Cc3cc(C)n[nH]3)nn2)[C@@H](C)C1 [Compound 64],< 100 nM
24,CCc1cc2c(s1)CCO[C@@]21CCN(Cc2cn(Cc3nnc[nH]3)nn2)[C@@H](C)C1 [Compound 65],100 to 500 nM
25,CCc1cc2c(s1)CCO[C@@]21CCN(Cc2cn(Cc3c(C)cc(C)nc3O)nn2)[C@@H](C)C1 [Compound 66],100 to 500 nM
26,CCc1cc2c(s1)CCO[C@@]21CCN(Cc2cn(CCc3ncn[nH]3)nn2)[C@@H](C)C1 [Compound 67],< 100 nM
27,CCc1cc2c(s1)CCO[C@@]21CCN(Cc2cn(CCn3ccnc3C)nn2)[C@@H](C)C1 [Compound 68],100 to 500 nM
28,CCc1cc2c(s1)CCO[C@@]21CCN(Cc2cn(CC(O)c3nccn3C)nn2)[C@@H](C)C1 (stereo partly shown) [Compound 69],< 100 nM

row,Structure (SMILES),IC50
1,CCc1cc2c(s1)CCO[C@@]21CCN(Cc2cn(-c3cnc(C)nc3)nn2)[C@@H](C)C1 [Compound 70],< 100 nM
2,CCc1cc2c(s1)CCO[C@@]21CCN(Cc2cn(-c3cncc(F)c3)nn2)[C@@H](C)C1 [Compound 71],< 100 nM
3,CCc1cc2c(s1)CCO[C@@]21CCN(Cc2cn(-c3cncnc3)nn2)[C@@H](C)C1 [Compound 72],< 100 nM
4,CCc1cc2c(s1)CCO[C@@]21CCN(Cc2cn(-c3cccnc3)nn2)[C@@H](C)C1 [Compound 73],< 100 nM
5,CCc1cc2c(s1)CCO[C@@]21CCN(Cc2cn(CC3(C(O)C(C)C)CC3)nn2)[C@@H](C)C1 (stereo partly shown) [Compound 74],100 to 500 nM
6,CCOCCOCC(O)Cn1cc(CN2CC[C@]3(C[C@@H]2C)OCCc2sc(CC)cc23)nn1 (stereo partly shown) [Compound 75],< 100 nM
7,CCc1cc2c(s1)CCOC21CCN(Cc2cn(CC(O)c3ccccn3)nn2)C(C)C1 (stereo not shown) [Compound 76],100 to 500 nM
8,CCc1cc2c(s1)CCOC21CCN(Cc2cn(CC3(O)CCOC3)nn2)C(C)C1 (stereo not shown) [Compound 77],500 to 1000 nM
9,CCc1cc2c(s1)CCO[C@@]21CCN(Cc2cn(CC3CCC4(CC3)COC4)nn2)[C@@H](C)C1 [Compound 78],100 to 500 nM
10,CCc1cc2c(s1)CCO[C@@]21CCN(Cc2cn(CC3(CO)CCOCC3)nn2)[C@@H](C)C1 [Compound 79],100 to 500 nM
11,CCc1cc2c(s1)CCO[C@@]21CCN(Cc2cn(CC(C)(C)CCO)nn2)[C@@H](C)C1 [Compound 80],100 to 500 nM
12,CCc1cc2c(s1)CCO[C@@]21CCN(Cc2cn(CC(=O)NCCO)nn2)[C@@H](C)C1 [Compound 81],100 to 500 nM
13,CCc1cc2c(s1)CCOC21CCN(Cc2cn(CC(C)CO)nn2)C(C)C1 (stereo not shown) [Compound 82],100 to 500 nM
14,CCc1cc2c(s1)CCO[C@@]21CCN(Cc2cn(CC3(CCO)CC3)nn2)[C@@H](C)C1 [Compound 83],100 to 500 nM
15,CCc1cc2c(s1)CCOC21CCN(Cc2cn(CC(C)(O)COC)nn2)C(C)C1 (stereo not shown) [Compound 84],< 100 nM
16,CCCC(O)Cn1cc(CN2CC[C@]3(C[C@@H]2C)OCCc2sc(CC)cc23)nn1 (stereo partly shown) [Compound 85],< 100 nM
17,CCc1cc2c(s1)CCOC21CCN(Cc2cn(CC(O)C3CCOCC3)nn2)C(C)C1 (stereo not shown) [Compound 86],< 100 nM
18,CCc1cc2c(s1)CCO[C@@]21CCN(Cc2cn(CC3(OCCO)CCOCC3)nn2)[C@@H](C)C1 [Compound 87],100 to 500 nM
19,CCc1cc2c(s1)CCOC21CCN(Cc2cn(CC(O)CF)nn2)C(C)C1 (stereo not shown) [Compound 88],< 100 nM
20,CCc1cc2c(s1)CCO[C@@]21CCN(Cc2cn(CC(O)(CO)CO)nn2)[C@@H](C)C1 [Compound 89],< 100 nM
21,CCc1cc2c(s1)CCO[C@@]21CCN(Cc2cn(CC(=O)N3CCOCC3)nn2)[C@@H](C)C1 [Compound 90],100 to 500 nM
22,CCc1cc2c(s1)CCOC21CCN(Cc2cn(CC(O)CS(C)(=O)=O)nn2)C(C)C1 (stereo not shown) [Compound 91],< 100 nM
23,CCc1cc2c(s1)CCOC21CCN(Cc2cn(CC(c3cccnc3)N3CCOCC3)nn2)C(C)C1 (stereo not shown) [Compound 92],500 to 1000 nM
24,CCc1cc2c(s1)CCO[C@@]21CCN(Cc2cn(CC(C)(O)c3ccccc3)nn2)[C@@H](C)C1 (stereo partly shown) [Compound 93],500 to 1000 nM
25,CCc1cc2c(s1)CCO[C@@]21CCN(Cc2cn(CC3(COC)CCOCC3)nn2)[C@@H](C)C1 [Compound 94],100 to 500 nM
26,CCc1cc2c(s1)CCO[C@@]21CCN(Cc2cn(CC3COCCN3)nn2)[C@@H](C)C1 (stereo partly shown) [Compound 95],< 100 nM
27,CCc1cc2c(s1)CCO[C@@]21CCN(Cc2cn(CC3CS(=O)(=O)CCO3)nn2)[C@@H](C)C1 (stereo partly shown) [Compound 96],< 100 nM
